Data: US7335495B2, “Process for the isolation of pharmaceutical compound cyclosporin a from fungus fusarium nivale” (Council of Scientific and Industrial Research, priority 2002, dated 2008)

What was measured:
Cryptococcus neoformans = assay: MIC by disk diffusion method, Cryptococcus neoformans; type: cell-based; conditions: Cryoticiecus Neoformans; disks of 50, 25, 12.5, 6.25 and 3.12 μg; 42-120 hrs at room temperature
Excerpt: (§1) Czapek Malt Agar (Himedia laboratories Ltd.) was used for culturing Tricholphytos mentagrophytes T. tonsurans, T. violaceum, Aspergillus fresnil and A niger, A. japonicus. Mucological Agar (Himedia Laboratories Ltd was used for Cryptocaccus neoformans and Candida sp.
(§2) Pathogeiic fungal strains of yeast and filamentous fungi (Identified and gifted by Dr. Savio from Goa Medical College, Bamoblim) were used for the test. Strains of Aspergillus were isolated from the infected wheat bread with sterile needles; fungal material was surface sterilized using 0.5% sodium hypochlorite for 2-3 minutes and then washed with small brush in sterile distilled water. This Aspergillus species was described earlier as food spoilage (Bhosale et. Al., 1999). […]
(§3) Innocula were adjusted to 50 μl of Cryptococcus neoformans, Candida sp., Trichophyrou tonsurans, T. violaceum and T. mentagrophytes, Aspergillus fresenil, A. niger, A. japonicus and spread on the appropriate plates, excess moisture was allowed to be absorbed for 10 minutes before applying on disks. […] Test plates were incubated for 42-120 hrs. at room temperature to obtain maximum growth and MIC was determined as lowest concentration of compound and antifungal agents resulting in a cleas zone of growth inhibition. […]

Candida sp. = assay: MIC by disk diffusion method, Candida sp.; type: cell-based; conditions: disks of 50, 25, 12.5, 6.25 and 3.12 μg, 42-120 hrs at room temperature
Excerpt: as §1, §2, §3

T. violaceum = assay: MIC by disk diffusion method, T. violaceum; type: cell-based, Trichophyton violaceum; conditions: disks of 50, 25, 12.5, 6.25 and 3.12 μg, 42-120 hrs at room temperature
Excerpt: as §1, §2, §3

A. niger = assay: MIC by disk diffusion method, A. niger; type: cell-based, Aspergillus niger; conditions: disks of 50, 25, 12.5, 6.25 and 3.12 μg, 42-120 hrs at room temperature
Excerpt: as §1, §2, §3

T. tonsurans = assay: MIC by disk diffusion method, T. tonsurans; type: cell-based, Trichophyton tonsurans; conditions: disks of 50, 25, 12.5, 6.25 and 3.12 μg, 42-120 hrs at room temperature
Excerpt: as §1, §2, §3

Fusarium sp. = assay: MIC by disk diffusion method, Fusarium sp.; type: cell-based; conditions: disks of 50, 25, 12.5, 6.25 and 3.12 μg, 42-120 hrs at room temperature
A. japonicus = assay: MIC by disk diffusion method, A. japonicus; type: cell-based, Aspergillus japonicus; conditions: disks of 50, 25, 12.5, 6.25 and 3.12 μg, 42-120 hrs at room temperature
Excerpt: as §1, §2, §3

Aspergillus fresenii = assay: MIC by disk diffusion method, Aspergillus fresenii; type: cell-based; conditions: disks of 50, 25, 12.5, 6.25 and 3.12 μg, 42-120 hrs at room temperature
Excerpt: as §1, §2, §3

[1] = test system: Trichophyton mentagrophytes; assay: MIC by disk diffusion method, Trichophyton mentagrophytes; type: cell-based; conditions: disks of 50, 25, 12.5, 6.25 and 3.12 μg, 42-120 hrs at room temperature
Excerpt: as §1, §2, §3

Row | SMILES | MIC, Disk Diffusion Method (Cryptococcus neoformans) | MIC, Disk Diffusion Method (Candida sp.) | MIC, Disk Diffusion Method (T. violaceum) | MIC, Disk Diffusion Method (A. niger) | MIC, Disk Diffusion Method (T. tonsurans) | MIC, Disk Diffusion Method (Fusarium sp.) | MIC, Disk Diffusion Method (A. japonicus) | MIC, Disk Diffusion Method (Aspergillus fresenii) | MIC, Disk Diffusion Method [1]
1 | C[C@@H]1[C@H](O)[C@@H](C)/C=C/C=C/CC/C=C/C=C/C=C/C=C/C(O[C@H]2O[C@H](C)[C@@H](O)[C@H](N)[C@@H]2O)CC2O[C@](O)(CC(O)C(O)CCC(O)CC(O)CC(O)CC(=O)O[C@H]1C)CC(O)C2C(=O)O (some centres unmarked) [Nystatin] | 3.12-6.25 μg/disc^−1 | 3.12-6.25 μg/disc^−1 | – | – | – | – | – | – | –
2 | C[C@@H]1[C@H](O)[C@@H](C)/C=C/C=C/C=C/C=C/C=C/C=C/C=C/[C@H](O[C@@H]2O[C@H](C)[C@@H](O)[C@H](N)[C@@H]2O)C[C@@H]2O[C@](O)(C[C@@H](O)C[C@@H](O)[C@H](O)CC[C@@H](O)C[C@@H](O)CC(=O)O[C@H]1C)C[C@H](O)[C@H]2C(=O)O [Amphotericin B] | 3.12-6.25 μg/disc^−1 | 3.12-6.25 μg/disc^−1 | 6.25-12.5 μg/disc^−1 | 6.25-12.5 μg/disc^−1 | 6.25-12.5 μg/disc^−1 | 12.5-25 μg/disc^−1 | 6.25-12.5 μg/disc^−1 | 6.25-12.5 μg/disc^−1 | 3.12-6.25 μg/disc^−1
